Test system: HLA-DQ2
Experiment: Inhibition of IL-2 secretion by TCR transductants stimulated by α-gliadin peptides presented by HLA-DQ2 expressing K562 cells (ELISA)
Assay type: cell-based, human
Conditions: for DQ2 IL2 Maximal % Inhibition: IL-2 secretion, at the concentration given in brackets; for concentration at which the compound exhibited maximum % inhibition (DQ2 IL2): from dose-response curve, figure in brackets in the cell
Protocol: Three commercially available analogues of the DQ2 binding molecules of the invention were tested for their ability to inhibit stimulation of T cell receptor (TCR) transductants in the presence of HLA-DQ2 expressing cells presenting known α-gliadin epitopes.
Using a previously published in vitro assay (Ostrov D, et al. Methyldopa blocks MHC class II binding to disease specific antigens in autoimmune diabetes. J Clin Invest. 2018:128(5)) we measured the ability of these DQ2 binding analogues to inhibit interleukin-2 (IL-2) secretion by TCR transductants stimulated by α-gliadin peptides presented by HLA-DQ2. Individual TCR transductants (recognizing α I-gliadin or α II-gliadin) were cultured with a gliadin peptide plus the small molecule analogues in the presence of HLA-DQ2 expressing K562 cells serving as antigen presenting cells. TCR transductants cultured with no gliadin peptide served as the negative control, and incubation with an anti-CD3 antibody (eBioscience; clone 2C11) served as a positive control for the TCR transductant. Secreted IL-2 in the culture supernatant was measured using a highly sensitive enzyme-linked immunosorbent assay (ELISA). […] Assays for effects on cell viability and for specificity, assayed in the absence of gliadin peptide or in the presence of a stimulating anti-CD3 antibody, were performed. A=71-100%; B=41-70%; C=11-40%; D=0-10%, NT=Not tested.

[1] = TCR transductants (α I- or α II-gliadin) + gliadin peptide + HLA-DQ2 K562 cells

Row | Compound | DQ2 IL2 Maximal % Inhibition (Table 2, TCR transductants + gliadin peptide + HLA-DQ2 K562 cells) | concentration at which the compound exhibited maximum % inhibition (DQ2 IL2) (Table 2) | DQ2 IL2 Maximal % Inhibition [1] | concentration at which the compound exhibited maximum % inhibition (DQ2 IL2)
1 | Cn1nc2c(cc1=O)CC(NC(=O)c1ccc3ccccc3n1)CC2 (stereo not shown) [Compound 61] | A (A=71-100%) | 200 µM |  | 
2 | CC(C)c1ccc(C(=O)NC2CCc3nn(C4CC4)c(=O)cc3C2)cc1 (stereo not shown) [Compound 53] |  |  | A (A=71-100%) | 200 µM
3 | CCc1ccc(C(=O)NC2CCc3nn(CC)c(=O)cc3C2)cc1 (stereo not shown) [Compound 36] |  |  | B (B=41-70%) | 200 µM
4 | CCCCn1nc2c(cc1=O)CC(NC(=O)c1ccc(C(C)C)cc1)CC2 (stereo not shown) [Compound 46] |  |  | B (B=41-70%) | 200 µM
5 | CC(C)c1ccc(C(=O)NC2CCc3nn(C4CCCCC4)c(=O)cc3C2)cc1 (stereo not shown) [Compound 54] |  |  | A (A=71-100%) | 200 µM
6 | O=C(NC1CCc2n[nH]c(=O)cc2C1)c1ccc(Br)cc1 (stereo not shown) [Compound 30] |  |  | C (C=11-40%) | 200 µM
7 | CCCn1nc2c(cc1=O)CC(NC(=O)c1ccc(C(C)C)cc1)CC2 (stereo not shown) [Compound 41] |  |  | A (A=71-100%) | 200 µM
8 | Cn1nc2c(cc1=O)CC(NC(=O)c1cccc3ccccc13)CC2 (stereo not shown) [Compound 22] |  |  | C (C=11-40%) | 200 µM
9 | Cn1nc2c(cc1=O)CC(NC(=O)c1ccc(I)cc1)CC2 (stereo not shown) [Compound 35] |  |  | B (B=41-70%) | 200 µM
10 | CC(C)(C)C(=O)NC1CCc2n[nH]c(=O)cc2C1 (stereo not shown) [Compound 10] |  |  | D (D=0-10%) | 200 µM
11 | CC(C)c1ccc(C(=O)NC2CCc3n[nH]c(=O)cc3C2)cc1 (stereo not shown) [Compound 4] |  |  | A (A=71-100%) | 200 µM

Source: patent publication US11939300B2, “Compounds and methods for treating autoimmune disorders by targeting HLA-DQ2” (ImmunoMolecular Therapeutics, Inc., priority 2020, dated 2024)
